Source: paper PMC9503446, “Effects of Medicinal Leech-Related Cationic Antimicrobial Peptides on Human Blood Cells and Plasma” (Molecules, 2022)
In brackets after ≈: the same amount, converted by molar mass. Residues, ends and D or L forms follow the SMILES beside them. No end group written: not given here.

What was measured:
isolated neutrophils = assay: Luminol-dependent chemiluminescence, neutrophil respiratory burst; assay type: cell-based, human; settings: for Neutrophil respiratory burst (luminol-dependent chemiluminescence) in response to peptide-pretreated plasma: final peptide 5 μM or 20 μM, final plasma dilution 1:50, 37 °C
Method: Neutrophils and plasma were obtained from the same person. Plasma diluted five times in complete Krebs–Ringer buffer solution was treated with 50 μM or 200 μM CAMP, with plasma dilution and CAMP concentrations being the same as in the samples for hemolysis assay. The final plasma content in samples for CL measurement was restricted to no higher than 2%, since plasma constituents can inhibit luminol-dependent CL due to the scavenging effect. Following the addition of luminol to neutrophils, light emission recording was started. Spontaneous cell activation, if it occurred, was allowed to complete, and then the CAMP-containing plasma or control plasma was added (Figure 6), yielding a final plasma dilution of 1:50 and a final CAMP concentration of 5 μM or 20 μM. […] The effect was dose-dependent (Figure 6).
Chemiluminescence study was conducted at 37 °C with a Lum-1200 chemiluminometer (DISoft Llc, Moscow, Russia) measuring the intensity of emitted light in volts. Assays were performed with the following components in a total volume of 500 μL:435 μL of neutrophil suspension (final, 0.5 × 10^6 cells/mL) in complete Krebs–Ringer buffer solution, 10 μL of luminol (final, 200 μM), 50 μL of five-fold diluted (in the above buffer solution) autologous plasma containing or not containing CAMP at a desired concentration, 5 μL of PMA (final, 160 nM).
Neutrophils were placed in chemiluminometer cuvettes and equilibrated at 37 °C in the cuvette holder, after which luminol was added to each sample and the light emission was continuously recorded. In desired time intervals, plasma mixed with CAMP (or control plasma) and then PMA were added.

[1] = test system: neutrophils in whole blood; assay: Neutrophil extracellular trap (NET) assay in whole blood; assay type: cell-based, human; settings: for NET concentration versus control blood: 100 μM peptide, ex vivo blood, 3 h, 37 °C, no PMA
Method: EDTA-anticoagulated capillary blood was obtained via a finger prick. Blood aliquots of 20 μL were placed in 1.5 mL Eppendorf tubes and mixed with 2 μL of a CAMP solution (or 2 μL of PBS in controls). The samples were incubated for 3 h. After the first 1 h, PMA (100 nM final concentration) was added to a part of them, and incubation continued for a further 2 h. Cell settling was prevented by continuous gentle turning the tubes up and down using a Multi Bio RS-24 rotator (Biosan, Riga, Latvia). The blood was retained at the tube bottom by surface tension.
NET counts were performed using standardized blood smears stained by Romanowsky method. The smears were examined using a Motic B microscope (Motic, Xiamen, China). Quantitative assessment of NETs was performed as described previously. NETs among 300–500 leukocytes were counted in the middle third part of the smear, and the NETs-to-leukocyte percentage ratio was calculated. Based on counting results, the number of NETs in 1 μL of blood was calculated. In each experiment, two parallel samples were prepared and three parallel smears were taken from each at each observation point.

[2] = test system: blood plasma coagulation (intrinsic and final common pathways); assay: Plasma coagulation assay, activated partial thromboplastin time (APTT); set-up: species or system human; settings: for APTT prolongation versus control: 15 min pre-incubation at room temperature; for APTT change from the control value: 25, 50, 100 μM peptide in plasma
Method: (§1) Plasma samples (50 μL) were incubated for 15 min at room temperature with 0, 25, 50 or 100 μM CAMP, and then the coagulation assay steps were carried out according the manufacturer’s instructions.
(§2) The plasma coagulation tests were performed using an APG4-03-Pkh hemostasis analyzer (EMCO Llc, Moscow, Russia) and MLT-APTT and MLT-THROMBOPLASTIN reagent kits (MLT Llc, Moscow, Russia) according to the manufacturer’s instructions. Testing was performed on Plasma N (normal), a mixed pool of citrate anticoagulated plasma obtained from healthy donors, manufactured by RENAM Rpd, Moscow, Russia. Fifty microliter plasma samples supplemented with CAMPs at different concentrations (or with PBS as control) were pre-incubated at room temperature for 15 min. Afterward, in case of measuring activated partial thromboplastin time (APTT), 50 μL of APTT Reagent were added. The samples were warmed at 37 °C for 3 min, and 50 μL of Calcium Chloride Solution were added to initiate fibrin clot formation. For measuring prothrombin time (PT), pre-incubated plasma samples were warmed at 37 °C for 1 min, and fibrin clot formation was triggered by adding 100 μL of Thromboplastin Reagent.

[3] = test system: blood plasma coagulation (extrinsic and common pathways); assay: Plasma coagulation assay, prothrombin time (PT); set-up: species or system human; settings: for PT increase compared to control: 15 min pre-incubation at room temperature; for Effect on PT: 25, 50, 100 μM peptide in plasma
Method: as §1, §2

erythrocytes [4] = assay: Morphological observation of isolated erythrocytes (aggregation); assay type: cell-based, human
Method: Pept_3 stood out from the other four CAMPs in that it not only lysed, but also aggregated cells. An erythrocyte aggregate formed is illustrated by Figure 2. Samples for morphological observation of erythrocytes were the same as those for hemolysis assay. After incubation at 37 °C for 0.5 h, the samples were processed to fix with glutaraldehyde for qualitative morphological evaluation with light microscopy. A glutaraldehyde fixation method was applied for isolated cells to prevent damage that can occur during preparing smears, which are good for cells in blood.
Samples for morphological observation of erythrocytes were the same as those for hemolysis assay. After incubation at 37 °C for 0.5 h, the samples were centrifuged at 100× g for 5 min, following which the supernatant was removed and the cells fixed by resuspending them in 0.5 mL of 1% glutaraldehyde solution in PBS. Then, erythrocytes were left for 3 h at room temperature, with regular mixing. The fixed cells were stored at 4 °C until use. The supernatant over settled cells was withdrawn, and a cell aliquot was placed in a small workspace cut in the piece of scotch tape put on a microscope slide. Images were examined using a Motic B light microscope (Motic, Xiamen, China).

Escherichia coli = settings: cited from earlier work
From the text: Table 1 Cationic antimicrobial peptides (CAMPs) used in this study and their characteristics. | column: MIC, μM (E. coli)

erythrocytes [5] = assay: Hemolysis assay in the presence of autologous plasma; assay type: cell-based, human
Method: The interaction with blood plasma constituents is known to play an important role in the pharmacokinetics and effectiveness of therapeutic agents. For CAMPs, the binding in plasma could decrease their effective concentration at the site of action and, thereby, their antimicrobial activity. To elucidate whether CAMP interaction with cells is affected by plasma, presumably through CAMP binding, we performed the hemolysis assay. The erythrocyte suspension was added to the same volume of PBS containing CAMP at two times the final concentration or PBS containing both CAMP and 20% autologous plasma. Calculations for extracellular hemoglobin were made based on the negative and positive control samples containing or not containing plasma.
The hemolytic activity of CAMPs was determined using a hemolysis assay measuring hemoglobin released from damaged cells. […] The supernatant (200 μL) was transferred to the wells of a microplate, and the absorbance of hemoglobin was measured by a Thermo Electron Multiskan Ascent microplate reader (Thermo Fisher Scientific Inc., Waltham, MA, USA), with a test wavelength of 414 nm as well as 540 nm and a background wavelength of 690 nm. The hemolysis percentage was calculated using the following equation: Hemolysis (%) = {(sample absorbance − negative control)/(positive control − negative control)} × 100.

mononuclear cells = assay: LDH release cytolysis assay, mononuclear cells; settings: 50 μM peptide, PBS, 0.5 h, 37 °C; Lysis solution = 100%
Method: (§3) The disruptive effect of peptides on the plasma membrane of mononuclear cells and neutrophils was evaluated by the leakage of lactate dehydrogenase (LDH) from damaged cells. Experiments were run in PBS as a medium without calcium and magnesium ions, not to favor neutrophil and monocyte activation.
(§4) Aliquots of cell suspension without or with CAMPs at different concentrations were incubated at 37 °C for 0.5 h. Then, the assay steps were carried out. In each experiment, there were both mononuclear cells and neutrophils from the same healthy subject.
(§5) The cytolytic activity of CAMPs against mononuclear cells and neutrophils was determined using a lactate dehydrogenase (LDH) assay measuring LDH released upon cell lysis. Working cell suspensions in PBS supplemented with […] glucose were adjusted to an optical density of 0.12 at 800 nm, which corresponded to a cell density of about 600 × 10^3 cells/mL. LDH assay was performed using a Cytotoxicity Detection Kit^PLUS (LDH) (Roche Diagnostics, Mannheim, Germany) according to the manufacturer’s protocol. Then, 50 μL aliquots of CAMP solutions of different concentrations were placed in the wells of a microplate. The medium used for preparing CAMP solutions and the kit’s Lysis solution served for negative and positive controls, respectively. […]

neutrophils = assay: LDH release cytolysis assay, neutrophils; settings: 50 μM peptide, PBS, 0.5 h, 37 °C; Lysis solution = 100%
Method: as §3, §4, §5

Compound | Neutrophil respiratory burst (luminol-dependent chemiluminescence) in response to peptide-pretreated plasma (isolated neutrophils) | NET concentration versus control blood [1] | MIC (E. coli) (Escherichia coli) [µM] | APTT change from the control value [2] | Effect on PT [3] | also measured
CCCCCCCCCCCCCC(=O)O[C@@H]1[C@@H](C)[C@@]2(O)[C@@H](C=C(CO)C[C@]3(O)C(=O)C(C)=C[C@@H]23)[C@@H]2C(C)(C)[C@]12OC(C)=O [PMA, phorbol-12-myristate-13-acetate, reference compound] | – | – | – | – | – | ROS production by neutrophils (luminol-dependent chemiluminescence) (isolated neutrophils; PMA added after CAMP-containing plasma, final 160 nM): induced a high ROS production; Neutrophil activation in whole blood (morphology) ([1]; 100 nM, with or without CAMPs): resulted in neutrophil activation
CC(C)C[C@H](NC(=O)[C@H](Cc1ccccc1)NC(=O)[C@H](CS)NC(=O)[C@@H](NC(=O)[C@H](CC(C)C)NC(=O)[C@H](CCCNC(=N)N)NC(=O)[C@H](Cc1c[nH]c2ccccc12)NC(=O)[C@@H](N)CCCNC(=N)N)C(C)C)C(=O)N[C@@H](CS)C(=O)N[C@@H](CCCNC(=N)N)C(=O)N[C@@H](CCCNC(=N)N)C(=O)N[C@@H](CCCCN)C(=O)N[C@@H](CCCCN)C(=O)N[C@H](C(N)=O)C(C)C [pept_3] (H-RWRLVCFLCRRKKV-NH2; N-terminus and C-terminus assumed) | CL increase, though relatively low | No significant difference | 17 (≈ 31.7 µg/mL) | – | – | APTT prolongation versus control ([2]; 100 μM peptide in plasma): ~390%; PT increase compared to control ([3]; 25 μM peptide in plasma): about 165%; PT increase compared to control ([3]; 50 μM peptide in plasma): 320%; PT increase compared to control ([3]; 100 μM peptide in plasma): ~780%; Erythrocyte aggregation (erythrocytes [4]; 50 μM peptide in PBS, 0.5 h, 37 °C, glutaraldehyde fixation, light microscopy): induces erythrocyte aggregation; Erythrocyte aggregation, peptide preincubated with plasma (erythrocytes [4]; peptide preincubated with plasma): no cell aggregation was observed
FLIGKAIKRKFCLRSVWNA [pept_7, synthetic short cationic antimicrobial peptide designed by bioinformatic analysis of the medicinal leech genome and microbiome] | – | – | 14.3 | did not cause significant changes | did not cause significant changes | –
KFKKVIWKSFL-NH2 (C-terminus assumed) [pept_4] | no development of the respiratory burst | No significant difference | 90 | No significant APTT change | not significantly affected | –
RAVIYKIPYNAIASRWIIAPKKC [pept_8, synthetic short cationic antimicrobial peptide designed by bioinformatic analysis of the medicinal leech genome and microbiome] | – | – | 24 | – | – | APTT prolongation versus control ([2]; 100 μM peptide in plasma): about 45%
RLKRFKRVALRREKTARNFRSIVS [pept_6, synthetic short cationic antimicrobial peptide designed by bioinformatic analysis of the medicinal leech genome and microbiome] | – | – | >100 | – | no significant effect | APTT increase over the control value ([2]; 25 μM peptide in plasma): 1.3 fold; APTT increase over the control value ([2]; 50 μM peptide in plasma): 2.1 fold; APTT increase over the control value ([2]; 100 μM peptide in plasma): 2.9 fold
RPILIRVRRIRVI-NH2 (C-terminus assumed) [pept_5] | no development of the respiratory burst | No significant difference | 77 | No significant APTT change | not significantly affected | Effect of plasma on CAMP-induced hemolysis (erythrocytes [5]; 50 μM final peptide (100 μM mixed with five-fold diluted plasma)): complete inhibition; Effect of plasma on the hemolytic effect (erythrocytes [5]; 100 μM final peptide, autologous plasma final dilution 1:10, 0.5 h, 37 °C): completely inhibited; Lysis of mononuclear cells (LDH release) (mononuclear cells): about 20%; Lysis of neutrophils (LDH release) (neutrophils): ~15%
